Assays:
[1] = tested on: HCV GT1a replicon; assay: HCV replicon assay, genotype 1a, in Huh-7 cells; type: cell-based; conditions: Hepatitis C virus; Huh-7 cells stably transfected with HCV GT1a replicon, 72 hours incubation; luciferase or NEO gene qPCR readout; read-out: EC50 against HCV 1a genotype
Procedure: (§1) HCV Replicon System was utilized as a screening model in the present disclosure to evaluate the antivirus effects of the compounds disclosed herein against HCV. HCV Replicon assay was first described in Science, 1999, 285 (5424), 110-3. […] To determine the potential anti-HCV effects of the test compounds, luciferase assay and antibiotic Neomycin resistance gene were tested according to the method described in Science. 1999 Jul. 2; 285 (5424), 110-3 and J. Virol. 2003 March; 77 (5), 3007-19.
(§2) In a word, the compounds disclosed herein were tested by using human hepatic carcinoma cell line Huh-7 which is transfected stably with HCV GT1a, GT1b or GT2a replicon respectively, and resistant cells of Y93H, L31F, P32L or I302V and wild-type cells HCV 1b. HCV Replicon System disclosed herein contains G418 resistance gene NEO and Luciferase Reporter Gene, and the level of HCV replication in host cells is detected and characterized by the expression level of the NEO gene or Luciferase Reporter Gene, so the effects of the compounds herein inhibit HCV replication can be evaluated in this system. In this article, a real-time quantitative polymerase chain reaction (qPCR) method was used to detect NEO gene expression level, and chemiluminescence method was used to test Luciferase Reporter Gene expression level.
(§3) The Huh-7 cells transfected with HCV replicons system were seeded into 96-well plates (8,000 cells in 125 μL/well) respectively; each test compound was diluted to desired concentration using 5-fold serial dilutions protocol, 10 doses in duplicate (initial concentration for 10 nM) and added to wells with POD™ 810 Plate Assembler. The plates were incubated in a CO2 incubator for 72 hours; after that, 40 μL of Luciferase assay substrate (Promega Bright-Glo) was added to each well, and detected by a chemiluminescence detection system (Topcount Microplate Scintillation and Luminescence Counter) 5 minutes later; the EC50 (half-maximal effective concentration, concentration for 50% of maximal effect) values of test compounds were analyzed by GraphPad Prism software. In this paper, experiments were repeated twice and set the wells without compounds as negative control.
as §3, with “hours;” for “hours; after that, 40 μL of Luciferase assay substrate (Promega Bright-Glo) was added to each well,”, “the expression level of the NEO gene expression with real-time quantitative PCR” for “by a chemiluminescence detection system (Topcount Microplate Scintillation and Luminescence Counter) 5 minutes”, “software, respectively.” for “software.”

[2] = tested on: HCV GT1b replicon; assay: HCV replicon assay, genotype 1b, in Huh-7 cells; type: cell-based; conditions: Hepatitis C virus; Huh-7 cells stably transfected with HCV GT1b replicon, 72 hours incubation; luciferase or NEO gene qPCR readout; read-out: EC50 against HCV 1b genotype
Procedure: as §1, §2, §3
as §3, with “hours;” for “hours; after that, 40 μL of Luciferase assay substrate (Promega Bright-Glo) was added to each well,”, “the expression level of the NEO gene expression with real-time quantitative PCR” for “by a chemiluminescence detection system (Topcount Microplate Scintillation and Luminescence Counter) 5 minutes”, “software, respectively.” for “software.”

Row | SMILES | EC50 [1] [pM] | EC50 [2] [pM]
1 | COC(=O)N[C@H](C(=O)N1C(c2ncc(-c3ccc(-c4ccc(-c5cnc([C@@H]6CC[C@H](C)N6C(=O)[C@@H](NC(=O)OC)C(C)C)[nH]5)c5c4C4CCC5C4)cc3)[nH]2)CC[C@@H]1C)C(C)C (stereo partly shown) [Example 1] | 19 | 4
2 | COC(=O)N[C@H](C(=O)N1C[C@@H](C)C[C@H]1c1nc2ccc(-c3ccc(-c4ccc(-c5cnc(C6CC[C@H](C)N6C(=O)[C@@H](NC(=O)OC)C(C)C)[nH]5)cc4)c4c3C3CCC4C3)cc2[nH]1)C(C)C (stereo partly shown) [Example 2] | 4 | 4
3 | COC(=O)N[C@H](C(=O)N1C(c2ncc(-c3ccc(-c4ccc(-c5ccc6nc([C@@H]7CC[C@H](C)N7C(=O)[C@@H](NC(=O)OC)C(C)C)[nH]c6c5)c5c4C4CCC5C4)cc3)[nH]2)CC[C@@H]1C)C(C)C (stereo partly shown) [Example 3] | 8 | 5
4 | COC(=O)N[C@H](C(=O)N1C[C@@H](C)CC1c1ncc(-c2ccc(-c3ccc(-c4ccc5nc([C@@H]6CC[C@H](C)N6C(=O)[C@@H](NC(=O)OC)C(C)C)[nH]c5c4)c4c3C3CCC4C3)cc2)[nH]1)C(C)C (stereo partly shown) [Example 4] | 131 | 5
5 | COC(=O)NC(C(=O)N1C[C@@H](C)CC1c1ncc(-c2ccc(-c3ccc(-c4ccc5nc([C@@H]6CC[C@H](C)N6C(=O)[C@@H](NC(=O)OC)C(C)C)[nH]c5c4)c4c3C3CCC4C3)cc2)[nH]1)c1ccccc1 (stereo partly shown) [Example 5] | 98 | 7
6 | COC(=O)N[C@H](C(=O)N1C[C@@H](C)C[C@H]1c1ncc(-c2ccc(-c3ccc(-c4ccc5nc([C@@H]6CC[C@H](C)N6C(=O)[C@H](NC(=O)OC)c6ccccc6)[nH]c5c4)c4c3C3CCC4C3)cc2)[nH]1)C(C)C (stereo partly shown) [Example 6] | 32 | 6
7 | COC(=O)N[C@H](C(=O)N1C[C@@H](C)C[C@H]1c1ncc(-c2ccc(-c3ccc(-c4ccc5nc([C@@H]6CC[C@H](C)N6C(=O)[C@@H](NC(=O)OC)C6CCOCC6)[nH]c5c4)c4c3C3CCC4C3)cc2)[nH]1)C(C)C (stereo partly shown) [Example 7] | 87 | 5
8 | CC[C@H]1CC[C@@H](c2nc3ccc(-c4ccc(-c5ccc(-c6cnc([C@@H]7C[C@H](C)CN7C(=O)[C@@H](NC(=O)OC)C(C)C)[nH]6)cc5)c5c4C4CCC5C4)cc3[nH]2)N1C(=O)[C@@H](NC(=O)OC)C(C)C (stereo partly shown) [Example 8] | 63 | 9
9 | COC[C@H]1C[C@@H](c2ncc(-c3ccc(-c4ccc(-c5ccc6nc([C@@H]7CC[C@H](C)N7C(=O)[C@@H](NC(=O)OC)C(C)C)[nH]c6c5)c5c4C4CCC5C4)cc3)[nH]2)N(C(=O)[C@@H](NC(=O)OC)C(C)C)C1 (stereo partly shown) [Example 9] | 123 | 8
10 | CCC(C)[C@H](NC(=O)OC)C(=O)N1C[C@@H](CC)C[C@H]1c1ncc(-c2ccc(-c3ccc(-c4ccc5nc([C@@H]6CC[C@H](C)N6C(=O)[C@@H](NC(=O)OC)C(C)C)[nH]c5c4)c4c3C3CCC4C3)cc2)[nH]1 (stereo partly shown) [Example 10] | 57 | 9
11 | COC(=O)N[C@H](C(=O)N1[C@@H](C)CC[C@H]1c1nc2ccc(-c3ccc(-c4ccc(-c5cnc([C@@H]6C[C@@H]7CCC[C@@H]7N6C(=O)[C@@H](NC(=O)OC)[C@@H](C)OC)[nH]5)cc4)c4c3C3CCC4C3)cc2[nH]1)C(C)C (stereo partly shown) [Example 11] | 235 | 12

Source: US9738629B2, “Bridged ring compounds as Hepatitis C virus inhibitors, pharmaceutical compositions and uses thereof” (SUNSHINE LAKE PHARMA CO., LTD., priority 2014, dated 2017)
